Assay: Initial stability tests of synthetic/purified 9CBC
Assay type: physicochemical

## CC1=C(/C=C/C(C)=C\C=C\C(C)=C\C=C\C=C(C)\C=C\C=C(C)\C=C\C2=C(C)CCCC2(C)C)C(C)(C)CCC1 [9CBC, 9-cis-β-carotene]
Sensitive to oxygen and UV degradation
  Time to full decomposition: less than 24 hours
Under vacuum or nitrogen flushing
  Stability of purified 9CBC: unstable

From patent US20220098149A1, “METHOD FOR SYNTHESIS OF 9-CIS-BETA-CAROTENE AND FORMULATIONS THEREOF” (Ramot at Tel-Aviv University Ltd., priority 2016, published 2022)
